From patent US11370778B2, “Bis(pentahydroxyhexyl)amino substituted 2-{[(3-amino-pyrazin-2-yl)formamido]methyl}-1H-1,3-benzodiazol-3-ium derivatives as ENaC inhibitors for treating respiratory diseases” (ENTERPRISE THERAPEUTICS LIMITED, priority 2017, dated 2022)
Where a name gives a salt, the structure may show the parent alone.

Test: Bronchoalveolar lavage: compound levels in BAL after intratracheal administration
Type: in vivo
Details: bronchoalveolar lavage fluid (BAL), other: intratracheal, 0.1 mg/kg, rat, 0.1 mg/mL solution in 5% dextrose, 1 mL/Kg, lungs lavaged after 6 hours, LC/MS/MS
Procedure: Example 9—Bronchoalveolar Lavage A 0.1 mg/mL solution of ENaC inhibitor in 5% dextrose was administered intratracheally to a rat weighing 225-250 g. A volume of 1 mL/Kg was used. After 6 hours, lungs were lavaged with 3×4 mL of sterile saline. A 1 mL aliquot was subsequently snap frozen. Lungs were excised, weighed and snap frozen. Compound levels in the BAL and lung tissue were subsequently determined using LC/MS/MS bioanalysis.

| concentration at 6 h | Compound |
| --- | --- |
| 222 ng/mL | CCn1c(CNC(=O)c2nc(Cl)c(N)nc2N)[n+](CC)c2ccc(C(=O)N3CCC(N(C[C@H](O)[C@@H](O)[C@H](O)[C@H](O)CO)C[C@H](O)[C@@H](O)[C@H](O)[C@H](O)CO)CC3)cc21 [Example 1, 6-(4-{bis[(2S,3R,4R,5R)-2,3,4,5,6-pentahydroxyhexyl]amino}piperidine-1-carbonyl)-2-{[(3,5-diamino-6-chloropyrazin-2-yl)formamido]methyl}-1,3-diethyl-1H-1,3-benzodiazol-3-ium trifluoroacetic acid trifluoroacetate] |
| 210 ng/mL | CCn1c(CNC(=O)c2nc(Cl)c(N)nc2N)[n+](CC)c2ccc(C(=O)N3CCC(CN(C[C@H](O)[C@@H](O)[C@H](O)[C@H](O)CO)C[C@H](O)[C@@H](O)[C@H](O)[C@H](O)CO)CC3)cc21 [Example 3, 6-[4-({bis[(2S,3R,4R,5R)-2,3,4,5,6-pentahydroxyhexyl]amino}methyl)piperidine-1-carbonyl]-2-{[(3,5-diamino-6-chloropyrazin-2-yl)formamido]methyl}-1,3-diethyl-1H-1,3-benzodiazol-3-ium trifluoroacetic acid trifluoroacetate] |
| 524 ng/mL | CCn1c(CNC(=O)c2nc(Cl)c(N)nc2N)[n+](CC)c2ccc(C(=O)N3CC[C@@H](N(C[C@H](O)[C@@H](O)[C@H](O)[C@H](O)CO)C[C@H](O)[C@@H](O)[C@H](O)[C@H](O)CO)C3)cc21 [Example 4, 6-[(3R)-3-{bis[(2S,3R,4R,5R)-2,3,4,5,6-pentahydroxyhexyl]amino}pyrrolidine-1-carbonyl]-2-{[(3,5-diamino-6-chloropyrazin-2-yl)formamido]methyl}-1,3-diethyl-1H-1,3-benzodiazol-3-ium trifluoroacetic acid trifluoroacetate] |
| 471 ng/mL | CCn1c(CNC(=O)c2nc(Cl)c(N)nc2N)[n+](CC)c2ccc(C(=O)NCCN(C[C@H](O)[C@@H](O)[C@H](O)[C@H](O)CO)C[C@H](O)[C@@H](O)[C@H](O)[C@H](O)CO)cc21 [Example 5, 6-[(2-{bis[(2S,3R,4R,5R)-2,3,4,5,6-pentahydroxyhexyl]amino}ethyl)carbamoyl]-2-{[(3,5-diamino-6-chloropyrazin-2-yl)formamido]methyl}-1,3-diethyl-1H-1,3-benzodiazol-3-ium trifluoroacetic acid trifluoroacetate] |
| 251 ng/mL | CCn1c(CNC(=O)c2nc(Cl)c(N)nc2N)[n+](CC)c2ccc(C(=O)NCCOCCOCCOCCN(C[C@H](O)[C@@H](O)[C@H](O)[C@H](O)CO)C[C@H](O)[C@@H](O)[C@H](O)[C@H](O)CO)cc21 [Example 6, 2-{[(3,5-diamino-6-chloropyrazin-2-yl)formamido]methyl}-1,3-diethyl-6-{[(14S,15R,16R,17R)-14,15,16,17,18-pentahydroxy-12-[(2S,3R,4R,5R)-2,3,4,5,6-pentahydroxyhexyl]-3,6,9-trioxa-12-azaoctadecan-1-yl]carbamoyl}-1H-1,3-benzodiazol-3-ium trifluoroacetic acid trifluoroacetate] |
| 645 ng/mL | CCn1c(CNC(=O)c2nc(Cl)c(N)nc2N)[n+](CC)c2ccc(C(=O)NCCc3ccc(-c4ccc(CCN(C[C@H](O)[C@@H](O)[C@H](O)[C@H](O)CO)C[C@H](O)[C@@H](O)[C@H](O)[C@H](O)CO)cc4)cc3)cc21 [Example 7, 6-({2-[4′-(2-{bis[(2S,3R,4R,5R)-2,3,4,5,6-pentahydroxyhexyl]amino}ethyl)-[1,1′-biphenyl]-4-yl]ethyl}carbamoyl)-2-{[(3,5-diamino-6-chloropyrazin-2-yl)formamido]methyl}-1,3-diethyl-1H-1,3-benzodiazol-3-ium trifluoroacetic acid trifluoroacetate] |
